# Molecular target: human GABA A receptor α5β3γ2 (Homo sapiens (Human), UniProt P18507+P31644)
# Test: [3H]flumazenil competition binding assay, human GABA A α5β3γ2 receptors expressed in HEK293 cells
# Settings: human receptor; displacement of [3H]flumazenil (0.5 nM); means of two determinations; read-out: hKi GABAAa5
# Summary of the method: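 Competition for [3H]flumazenil binding on membranes of HEK293 cells transiently transfected with human α5β3γ2 receptors, in Krebs-tris buffer pH 7.5.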
row,Ki,SMILES
1,0.8 nM,"Cc1onc(-c2ccc(Cl)cc2)c1COc1ccc(C(=O)N[C@H](C)CO)cn1 [Example 256, 6-[3-(4-Chloro-phenyl)-5-methyl-isoxazol-4-ylmethoxy]-N—((R)-2-hydroxy-1-methyl-ethyl)-nicotinamide]"
2,13.6 nM,"CCNC(=O)c1ccc(OCc2conc2-c2ccccn2)nc1 [Example 364, N-Ethyl-6-(3-pyridin-2-yl-isoxazol-4-ylmethoxy)-nicotinamide]"
3,3 nM,"Cc1onc(-c2ccncn2)c1COc1ccc(C(=O)NC(C)C)cn1 [Example 313, N-Isopropyl-6-(5-methyl-3-pyrimidin-4-yl-isoxazol-4-ylmethoxy)-nicotinamide]"
4,38 nM,"Cc1onc(-c2ccccc2)c1COc1ccc(C(=O)Nc2ccccc2)cn1 [Example 48, 6-(5-Methyl-3-phenyl-isoxazol-4-ylmethoxy)-N-phenyl-nicotinamide]"
5,48 nM,"Cc1onc(-c2ccccc2)c1COc1ccc(C(=O)N2CCCC2C)cn1 (stereo not drawn) [Example 227, [6-(5-Methyl-3-phenyl-isoxazol-4-ylmethoxy)-pyridin-3-yl]-(2-methyl-pyrrolidin-1-yl)-methanone]"
6,22.2 nM,"Cc1onc(-c2ccccc2)c1COc1ccc([N+](=O)[O-])cn1 [Example 6, 2-(5-Methyl-3-phenyl-isoxazol-4-ylmethoxy)-5-nitro-pyridine]"
7,13.1 nM,"CC(=O)NCCNC(=O)c1ccc(OCc2conc2-c2ccc(Cl)cc2)nc1 [Example 356, N-(2-Acetylamino-ethyl)-6-[3-(4-chloro-phenyl)-isoxazol-4-ylmethoxy]-nicotinamide]"
8,2 nM,"Cc1onc(-c2ccccc2)c1COc1ccc(C(=O)NCC(F)F)cn1 [Example 11, N-(2,2-Difluoro-ethyl)-6-(5-methyl-3-phenyl-isoxazol-4-ylmethoxy)-nicotinamide]"
9,35 nM,"Cc1onc(-c2ccccc2)c1COc1ccc(C(=O)NCC(=O)OC(C)(C)C)cn1 [Example 24, {[6-(5-Methyl-3-phenyl-isoxazol-4-ylmethoxy)-pyridine-3-carbonyl]-amino}-acetic acid tert-butyl ester]"
10,3.9 nM,"Cc1onc(-c2ccccc2)c1COc1ccc(C(=O)NC2CCCC2)cn1 [Example 29, N-Cyclopentyl-6-(5-methyl-3-phenyl-isoxazol-4-ylmethoxy)-nicotinamide]"
11,25.9 nM,"COC(=O)c1ccc(NCc2c(-c3ccc(F)cc3)noc2C)nc1 [Example 172, 6-{[3-(4-Fluoro-phenyl)-5-methyl-isoxazol-4-ylmethyl]-amino}-nicotinic acid methyl ester]"
12,4.5 nM,"Cc1onc(-c2ccccc2F)c1COc1ccc(C(=O)NCC(F)(F)F)cn1 [Example 84, 6-[3-(2-Fluoro-phenyl)-5-methyl-isoxazol-4-ylmethoxy]-N-(2,2,2-trifluoro-ethyl)-nicotinamide]"
13,53.1 nM,"Cc1onc(-c2ccccc2)c1COc1ccc(C(=O)N(C)C(C)C)cn1 [Example 70, N-Isopropyl-N-methyl-6-(5-methyl-3-phenyl-isoxazol-4-ylmethoxy)-nicotinamide]"
14,7.1 nM,"Cc1onc(-c2ccncc2)c1COc1ccc(C(=O)NC2CC2)cn1 [Example 148, N-Cyclopropyl-6-(5-methyl-3-pyridin-4-yl-isoxazol-4-ylmethoxy)-nicotinamide]"
15,30.8 nM,"CCNC(=O)c1ccc(OCc2c(-c3ccccc3)noc2C(F)(F)F)nc1 [Example 130, N-Ethyl-6-(3-phenyl-5-trifluoromethyl-isoxazol-4-ylmethoxy)-nicotinamide]"
16,20.2 nM,"Cc1onc(-c2ccccc2)c1COc1ccc(C(=O)N(C)C2CCOCC2)cn1 [Example 50, N-Methyl-6-(5-methyl-3-phenyl-isoxazol-4-ylmethoxy)-N-(tetrahydro-pyran-4-yl)-nicotinamide]"

row,Ki,SMILES
1,28.3 nM,"O=C(NCC1CC1)c1ccc(OCc2c(-c3ccccc3)noc2C(F)(F)F)nc1 [Example 132, N-Cyclopropylmethyl-6-(3-phenyl-5-trifluoromethyl-isoxazol-4-ylmethoxy)-nicotinamide]"
2,19.2 nM,"Cc1onc(-c2ccc(F)cn2)c1COc1ccc(C(=O)O)cn1 [Example 287, 6-[3-(5-Fluoro-pyridin-2-yl)-5-methyl-isoxazol-4-ylmethoxy]-nicotinic acid]"
3,2.3 nM,"CC[C@H](CO)NC(=O)c1ccc(OCc2c(-c3ccccc3)noc2C)nc1 [Example 209, N—((R)-1-Hydroxymethyl-propyl)-6-(5-methyl-3-phenyl-isoxazol-4-ylmethoxy)-nicotinamide]"
4,9.5 nM,"C[C@@H](O)CNC(=O)c1ccc(OCc2conc2-c2ccc(F)cc2)nc1 [Example 337, 6-[3-(4-Fluoro-phenyl)-isoxazol-4-ylmethoxy]-N—((R)-2-hydroxy-propyl)-nicotinamide]"
5,20.2 nM,Cc1onc(-c2ccccc2)c1COc1ccc(C(=O)N2CCC[C@@H]2CO)cn1 [Example 225]
6,0.6 nM,"Cc1onc(-c2ccc(Cl)cn2)c1COc1ccc(C(=O)N2CCOCC2)cn1 [Example 309, {6-[3-(5-Chloro-pyridin-2-yl)-5-methyl-isoxazol-4-ylmethoxy]-pyridin-3-yl}-morpholin-4-yl-methanone]"
7,7.7 nM,"CCC(CC)CNC(=O)c1ccc(OCc2c(-c3ccccc3)noc2C)nc1 [Example 17, N-(2-Ethyl-butyl)-6-(5-methyl-3-phenyl-isoxazol-4-ylmethoxy)-nicotinamide]"
8,13.8 nM,"CCOC(=O)CN1CCCC(NC(=O)c2ccc(OCc3c(-c4ccccc4)noc3C)nc2)C1 (stereo not drawn) [Example 40, (3-{[6-(5-Methyl-3-phenyl-isoxazol-4-ylmethoxy)-pyridine-3-carbonyl]-amino}-piperidin-1-yl)-acetic acid ethyl ester]"
9,4.3 nM,"C[C@@H](CO)NC(=O)c1ccc(OCc2conc2-c2ccc(Cl)cc2)nc1 [Example 355, 6-[3-(4-Chloro-phenyl)-isoxazol-4-ylmethoxy]-N—((S)-2-hydroxy-1-methyl-ethyl)-nicotinamide]"
10,35.1 nM,"Cc1onc(-c2ccccc2)c1COc1cc(OCc2ccccc2)ccn1 [Example 56, 4-Benzyloxy-2-(5-methyl-3-phenyl-isoxazol-4-ylmethoxy)-pyridine]"
11,4.5 nM,"Cc1onc(-c2ccncc2)c1COc1ccc(C(=O)NC(C)C)cn1 [Example 149, N-Isopropyl-6-(5-methyl-3-pyridin-4-yl-isoxazol-4-ylmethoxy)-nicotinamide]"
12,19.4 nM,Cc1onc(-c2ccccc2)c1COc1ccc(C(=O)NC[C@H]2CC(=O)NO2)cn1 [Example 18]
13,5 nM,"Cc1onc(-c2ccccc2)c1COc1ccc(C(=O)N[C@@H]2CCC[C@@H]2O)cn1 (single isomer, unassigned) [Example 210, N-((1R,2S)-2-Hydroxy-cyclopentyl)-6-(5-methyl-3-phenyl-isoxazol-4-ylmethoxy)-nicotinamide or N-((1S,2R)-2-hydroxy-cyclopentyl)-6-(5-methyl-3-phenyl-isoxazol-4-ylmethoxy)-nicotinamide]"
14,0.7 nM,"Cc1onc(-c2ccccc2)c1COc1ccc(C(=O)N[C@@H](C)CO)cn1 [Example 196, N—((S)-2-Hydroxy-1-methyl-ethyl)-6-(5-methyl-3-phenyl-isoxazol-4-ylmethoxy)-nicotinamide]"
15,13.9 nM,"Cc1onc(-c2ccccc2)c1COc1ccc(C(=O)N2CCC2)cn1 [Example 240, Azetidin-1-yl-[6-(5-methyl-3-phenyl-isoxazol-4-ylmethoxy)-pyridin-3-yl]-methanone]"

row,SMILES,Ki
1,"Cc1onc(-c2ccc(Cl)cn2)c1COc1ccc(C(=O)NC(C)C)cn1 [Example 302, 6-[3-(5-Chloro-pyridin-2-yl)-5-methyl-isoxazol-4-ylmethoxy]-isopropyl-nicotinamide]",0.3 nM
2,"Cc1onc(-c2ccccc2)c1COc1ccc(C(=O)N[C@@H]2CCCC[C@H]2O)cn1 [Example 197, N-((1R,2R)-2-Hydroxy-cyclohexyl)-6-(5-methyl-3-phenyl-isoxazol-4-ylmethoxy)-nicotinamide]",11 nM
3,"Cc1onc(-c2cccc(Cl)c2)c1COc1ccc(C(=O)N2CCS(=O)(=O)CC2)cn1 [Example 102, {6-[3-(3-Chloro-phenyl)-5-methyl-isoxazol-4-ylmethoxy]-pyridin-3-yl}-(1,1-dioxo-1λ6-thiomorpholin-4-yl)-methanone]",19.5 nM
4,"Cc1onc(-c2ccccc2)c1COc1ccc(C(=O)NC2CC2)cn1 [Example 27, N-Cyclopropyl-6-(5-methyl-3-phenyl-isoxazol-4-ylmethoxy)-nicotinamide]",2.7 nM
5,"Cc1onc(-c2ccccc2)c1COc1ccc(C(=O)N[C@H]2CCCC[C@@H]2O)cn1 [Example 198, N-((1S,2S)-2-Hydroxy-cyclohexyl)-6-(5-methyl-3-phenyl-isoxazol-4-ylmethoxy)-nicotinamide]",6.5 nM
6,"Cc1onc(-c2ccccc2F)c1COc1ccc(C(=O)NCC(F)(F)C(F)(F)F)cn1 [Example 85, 6-[3-(2-Fluoro-phenyl)-5-methyl-isoxazol-4-ylmethoxy]-N-(2,2,3,3,3-pentafluoro-propyl)-nicotinamide]",9.8 nM
7,"C[C@H](CO)NC(=O)c1ccc(OCc2conc2-c2ccc(F)cc2)nc1 [Example 326, 6-[3-(4-Fluoro-phenyl)-isoxazol-4-ylmethoxy]-N—((R)-2-hydroxy-1-methyl-ethyl)-nicotinamide]",27.7 nM
8,"Cc1cccc(OCc2c(-c3ccccc3)noc2C)n1 [Example 2, 2-Methyl-6-(5-methyl-3-phenyl-isoxazol-4-ylmethoxy)-pyridine]",3.1 nM
9,"CCN1CCCC(NC(=O)c2ccc(OCc3c(-c4ccccc4)noc3C)nc2)C1 (stereo not drawn) [Example 39, N-(1-Ethyl-piperidin-3-yl)-6-(5-methyl-3-phenyl-isoxazol-4-ylmethoxy)-nicotinamide]",5 nM
10,"Cc1onc(-c2ccccc2)c1COc1ccc(C(=O)NCCF)cn1 [Example 10, N-(2-Fluoro-ethyl)-6-(5-methyl-3-phenyl-isoxazol-4-ylmethoxy)-nicotinamide]",4.4 nM
11,"Cc1onc(-c2ccccc2)c1COc1ccc(C(=O)NCc2nc(C3CC3)no2)cn1 [Example 19, N-(3-Cyclopropyl-[1,2,4]oxadiazol-5-ylmethyl)-6-(5-methyl-3-phenyl-isoxazol-4-ylmethoxy)-nicotinamide]",13.1 nM

# From patent publication US8846719B2, “Isoxazolo-pyridine derivatives” (Roche Palo Alto LLC, priority 2007, dated 2014)
